For one experiment, the target named is T1, human V1a receptor (Homo sapiens, UniProt P37288).
T1 construct: expressed in transfected cells; host or cells: CHO K1 (ATCC), also stably transfected with a modified aequorin
Kind of experiment: Cellular in vitro assay for determining vasopressin receptor activity (V1a, aequorin luminescence). It counts as cell-based. As to conditions: for IC50: CHO cell line transfected with the human V1a receptor, [Arg8]-vasopressin at EC50 concentration, read-out: IC50 hV1a; for ratio IC50 hV2/hV1a: selectivity ratio of IC50 hV2 to IC50 hV1a. The protocol:
(§1) B-1. Cellular In Vitro Assay for Determining Vasopressin Receptor Activity
(§2) The identification of agonists and antagonists of the V1a and V2 vasopressin receptors from humans, rats and dogs as well as the quantification of the activity of the compounds of the invention is carried out using recombinant cell lines. These cell lines originally derive from a hamster's ovary epithelial cell (Chinese Hamster Ovary, CHO K1, ATCC: American Type Culture Collection, Manassas, Va. 20108, USA). The test cell lines constitutively express the human, rat or dog V1a or V2 receptors. In case of the Gαq-coupled V1a receptors, cells are also stably transfected with a modified form of the calcium-sensitive photoproteins aequorin (human and rat V1a) or obelin (dog V1a), which, after reconstitution with the cofactor coelenterazine, emit light when there are increases in free calcium concentrations [Rizzuto R, Simpson A W, Brini M, Pozzan T, Nature 358, 325-327 (1992); Illarionov B A, Bondar V S, Illarionova V A, Vysotski E S, Gene 153 (2), 273-274 (1995)]. The resulting vasopressin receptor cells react to stimulation of the recombinantly expressed V1a receptors by intracellular release of calcium ions, which can be quantified by the resulting photoprotein luminescence. The Gs-coupled V2 receptors are stably transfected into cell lines expressing the gene for firefly luciferase under control of a CRE-responsible promoter. Activation of V2 receptors induces the activation of the CRE-responsive promoter via cAMP increase, thereby inducing the expression of firefly luciferase. The light emitted by photoproteins of V1a cell lines as well as the light emitted by firefly luciferase of V2 cell lines corresponds to the activation or inhibition of the respective vasopressin receptor. The bioluminescence of the cell lines is detected using a suitable luminometer [Milligan G, Marshall F, Rees S, Trends in Pharmacological Sciences 17, 235-237 (1996)].
Vasopressin V1a receptor cell lines:
On the day before the assay, the cells are plated out in culture medium (DMEM/F12, 2% FCS, 2 mM glutamine, 10 mM HEPES, 5 μg/ml coelenterazine) in 384-well microtiter plates and kept in a cell incubator (96% humidity, 5% v/v CO2, 37° C.). On the day of the assay, test compounds in various concentrations are placed for 10 minutes in the wells of the microtiter plate before the agonist [Arg^8]-vasopressin at EC50 concentration is added. The resulting light signal is measured immediately in a luminometer.
(§3) Table 1A below lists individual IC50 values for the compounds of the invention (including racemic mixtures as well as separated enantiomers) that were obtained from cell lines transfected with the human V1a or V2 receptor: […]

The target in the next experiment is T2, human V2 receptor (Homo sapiens, UniProt P30518).
T2 construct: expressed in transfected cells; host or cells: CHO K1 (ATCC) expressing firefly luciferase under a CRE-responsive promoter
Kind of experiment: Cellular in vitro assay for determining vasopressin receptor activity (V2, CRE-luciferase). Type of experiment: cell-based. As to conditions: CHO cell line transfected with the human V2 receptor; [Arg8]-vasopressin at EC50 concentration; read-out: IC50 hV2. The protocol: as §1, §2
Vasopressin V2 receptor cell lines:
On the day before the assay, the cells are plated out in culture medium (DMEM/F12, 2% FCS, 2 mM glutamine, 10 mM HEPES) in 384-well microtiter plates and kept in a cell incubator (96% humidity, 5% v/v CO2, 37° C.). On the day of the assay, test compounds in various concentrations and the agonist [Arg^8]-vasopressin at EC50 concentration are added together to the wells, and plates are incubated for 3 hours in a cell incubator. Upon addition of the cell lysis reagent Triton™ and the substrate luciferin, luminescence of firefly luciferase is measured in a luminometer.
as §3

Counter-ions that a name gives are not always drawn.

T1 sequence (P37288 whole entry): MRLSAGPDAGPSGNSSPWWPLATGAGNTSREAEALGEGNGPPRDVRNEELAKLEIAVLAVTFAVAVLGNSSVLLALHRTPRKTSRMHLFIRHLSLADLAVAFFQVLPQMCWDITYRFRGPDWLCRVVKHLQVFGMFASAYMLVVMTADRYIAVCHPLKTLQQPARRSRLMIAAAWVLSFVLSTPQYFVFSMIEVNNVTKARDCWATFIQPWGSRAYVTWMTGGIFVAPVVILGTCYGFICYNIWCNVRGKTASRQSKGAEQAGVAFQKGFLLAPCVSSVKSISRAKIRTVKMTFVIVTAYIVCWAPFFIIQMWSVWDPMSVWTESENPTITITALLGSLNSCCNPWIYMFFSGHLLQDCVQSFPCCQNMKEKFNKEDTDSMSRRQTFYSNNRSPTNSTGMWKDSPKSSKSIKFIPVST
T2 sequence (P30518 whole entry): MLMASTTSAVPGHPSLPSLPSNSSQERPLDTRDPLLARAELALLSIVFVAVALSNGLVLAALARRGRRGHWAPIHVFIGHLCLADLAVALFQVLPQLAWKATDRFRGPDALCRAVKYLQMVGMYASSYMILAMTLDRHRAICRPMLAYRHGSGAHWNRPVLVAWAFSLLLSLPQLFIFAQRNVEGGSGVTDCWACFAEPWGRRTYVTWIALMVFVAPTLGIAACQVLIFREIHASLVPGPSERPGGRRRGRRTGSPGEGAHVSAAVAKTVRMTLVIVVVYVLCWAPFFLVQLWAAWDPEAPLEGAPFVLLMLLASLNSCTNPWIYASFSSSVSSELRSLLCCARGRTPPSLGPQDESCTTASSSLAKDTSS

Consider `CC(N)c1nc(Cn2nc(-c3ccc(Cl)cc3)n(C[C@H](O)C(F)(F)F)c2=O)nn1-c1cccc(F)c1` (mixture of isomers) [Example 53, 2-({5-[1-Aminoethyl]-1-(3-fluorophenyl)-1H-1,2,4-triazol-3-yl}methyl)-5-(4-chlorophenyl)-4-[(2S)-3,3,3-trifluoro-2-hydroxypropyl]-2,4-dihydro-3H-1,2,4-triazol-3-one trifluoroacetate], for which the IC50 on human V1a receptor turned out to be 18.3 nM; on human V2 receptor, 5.29 nM. Besides, on human V1a receptor, the “ratio IC50 hV2/hV1a” value stood at 0.3.

Consider `Cc1ccccc1-n1nc(Cn2nc(-c3ccc(Cl)cc3)n(C[C@H](O)C(F)(F)F)c2=O)nc1C(C)N` (mixture of isomers) [Example 59, 2-({5-[1-Aminoethyl]-1-(2-methylphenyl)-1H-1,2,4-triazol-3-yl}methyl)-5-(4-chlorophenyl)-4-[(2S)-3,3,3-trifluoro-2-hydroxypropyl]-2,4-dihydro-3H-1,2,4-triazol-3-one trifluoroacetate], for which, at human V1a receptor, the IC50 is 1.19 nM and the “ratio IC50 hV2/hV1a” value worked out at 2.3. Besides, the IC50 at human V2 receptor came to 2.74 nM.

Take `CC(N)c1nc(Cn2nc(-c3ccc(Cl)cc3)n(C[C@H](O)C(F)(F)F)c2=O)nn1-c1ccccc1Cl` (mixture of isomers) [Example 60, 2-({5-[1-Aminoethyl]-1-(2-chlorophenyl)-1H-1,2,4-triazol-3-yl}methyl)-5-(4-chlorophenyl)-4-[(2S)-3,3,3-trifluoro-2-hydroxypropyl]-2,4-dihydro-3H-1,2,4-triazol-3-one trifluoroacetate]: the IC50 at human V1a receptor came to 0.74 nM; on human V2 receptor it was 3.17 nM. Further, the “ratio IC50 hV2/hV1a” value on human V1a receptor is on record as 4.3.

With `CC(=O)NC(C)c1nc(Cn2nc(-c3ccc(Cl)cc3)n(C[C@H](O)C(F)(F)F)c2=O)nn1-c1ccccc1Cl` (mixture of isomers) [Example 64, N-{1-[1-(2-Chlorophenyl)-3-({3-(4-chlorophenyl)-5-oxo-4-[(2S)-3,3,3-trifluoro-2-hydroxypropyl]-4,5-dihydro-1H-1,2,4-triazol-1-yl}methyl)-1H-1,2,4-triazol-5-yl]ethyl}acetamide], on human V1a receptor, the IC50 is 1.8 nM and the “ratio IC50 hV2/hV1a” value is given as 9.8. Also, the IC50 at human V2 receptor was found to be 17.7 nM.

Consider `CC(NS(C)(=O)=O)c1nc(Cn2nc(-c3ccc(Cl)cc3)n(C[C@H](O)C(F)(F)F)c2=O)nn1-c1ccccc1Cl` (mixture of isomers) [Example 67, N-{1-[1-(2-Chlorophenyl)-3-({3-(4-chlorophenyl)-5-oxo-4-[(2S)-3,3,3-trifluoro-2-hydroxypropyl]-4,5-dihydro-1H-1,2,4-triazol-1-yl}methyl)-1H-1,2,4-triazol-5-yl]ethyl}methanesulfonamide], for which, on human V1a receptor, the half-inhibitory concentration (IC50) was 0.83 nM and the “ratio IC50 hV2/hV1a” value is given as 2.9. For the same compound, the IC50 on human V2 receptor was 2.43 nM.

Regarding `CN1C(=O)CCC1c1nc(Cn2nc(-c3ccc(Cl)cc3)n(C[C@H](O)C(F)(F)F)c2=O)nn1-c1ccccc1Cl` (mixture of isomers) [Example 70, 5-(4-Chlorophenyl)-2-{[1-(2-chlorophenyl)-5-(1-methyl-5-oxopyrrolidin-2-yl)-1H-1,2,4-triazol-3-yl]methyl}-4-[(2S)-3,3,3-trifluoro-2-hydroxypropyl]-2,4-dihydro-3H-1,2,4-triazol-3-one], on human V1a receptor, the IC50 turned out to be 0.81 nM and the “ratio IC50 hV2/hV1a” value turned out to be 8.7. Further, the IC50 at human V2 receptor stood at 7.03 nM.

For the compound `CC(NC(=O)C(F)(F)F)c1nc(Cn2nc(-c3ccc(Cl)cc3)n(C[C@H](O)C(F)(F)F)c2=O)nn1-c1ccccc1Cl` (mixture of isomers) [Example 73, N-{1-[1-(2-Chlorophenyl)-3-({3-(4-chlorophenyl)-5-oxo-4-[(2S)-3,3,3-trifluoro-2-hydroxypropyl]-4,5-dihydro-1H-1,2,4-triazol-1-yl}methyl)-1H-1,2,4-triazol-5-yl]ethyl}-2,2,2-trifluoroacetamide], the IC50 at human V1a receptor turned out to be 1.56 nM; on human V2 receptor, 8.6 nM. At human V1a receptor, the “ratio IC50 hV2/hV1a” value is given as 5.5.

Consider `CC(C)(C)OCC(N)c1nc(Cn2nc(-c3ccc(Cl)cc3)n(C[C@H](O)C(F)(F)F)c2=O)nn1-c1ccccc1Cl` (mixture of isomers) [Example 80, 2-({5-[1-Amino-2-tert-butoxyethyl]-1-(2-chlorophenyl)-1H-1,2,4-triazol-3-yl}methyl)-5-(4-chlorophenyl)-4-[(2S)-3,3,3-trifluoro-2-hydroxypropyl]-2,4-dihydro-3H-1,2,4-triazol-3-one], for which the IC50 at human V1a receptor was 0.61 nM; on human V2 receptor, 19 nM. Also, the “ratio IC50 hV2/hV1a” value at human V1a receptor stood at 31.4.

Turning to `NC(CO)c1nc(Cn2nc(-c3ccc(Cl)cc3)n(C[C@H](O)C(F)(F)F)c2=O)nn1-c1ccccc1Cl` (mixture of isomers) [Example 81, 2-({5-[1-Amino-2-hydroxyethyl]-1-(2-chlorophenyl)-1H-1,2,4-triazol-3-yl}methyl)-5-(4-chlorophenyl)-4-[(2S)-3,3,3-trifluoro-2-hydroxypropyl]-2,4-dihydro-3H-1,2,4-triazol-3-one hydrochloride], the values for the half-inhibitory concentration (IC50) at human V1a receptor and at human V2 receptor were 1.25 nM and 7.95 nM, respectively. Besides, the “ratio IC50 hV2/hV1a” value at human V1a receptor is on record as 6.4.

As to `CC(C)(C)OCC(NS(C)(=O)=O)c1nc(Cn2nc(-c3ccc(Cl)cc3)n(C[C@H](O)C(F)(F)F)c2=O)nn1-c1ccccc1Cl` (mixture of isomers) [Example 82, N-{2-tert-Butoxy-1-[1-(2-chlorophenyl)-3-({3-(4-chlorophenyl)-5-oxo-4-[(2S)-3,3,3-trifluoro-2-hydroxypropyl]-4,5-dihydro-1H-1,2,4-triazol-1-yl}methyl)-1H-1,2,4-triazol-5-yl]ethyl}methanesulfonamide], the IC50 came out at 0.64 nM at human V1a receptor and 48 nM at human V2 receptor. The “ratio IC50 hV2/hV1a” value at human V1a receptor was 75.6.

On to `CS(=O)(=O)NC(CO)c1nc(Cn2nc(-c3ccc(Cl)cc3)n(C[C@H](O)C(F)(F)F)c2=O)nn1-c1ccccc1Cl` (mixture of isomers) [Example 85, N-{1-[1-(2-Chlorophenyl)-3-({3-(4-chlorophenyl)-5-oxo-4-[(2S)-3,3,3-trifluoro-2-hydroxypropyl]-4,5-dihydro-1H-1,2,4-triazol-1-yl}methyl)-1H-1,2,4-triazol-5-yl]-2-hydroxyethyl}-methanesulfonamide], for which, at human V1a receptor, the IC50 was 0.35 nM and the “ratio IC50 hV2/hV1a” value was found to be 6.4. Besides, the IC50 at human V2 receptor is 2.25 nM.

For `CC(=O)NC(COC(C)(C)C)c1nc(Cn2nc(-c3ccc(Cl)cc3)n(C[C@H](O)C(F)(F)F)c2=O)nn1-c1ccccc1Cl` (mixture of isomers) [Example 88, N-{2-tert-Butoxy-1-[1-(2-chlorophenyl)-3-({3-(4-chlorophenyl)-5-oxo-4-[(2S)-3,3,3-trifluoro-2-hydroxypropyl]-4,5-dihydro-1H-1,2,4-triazol-1-yl}methyl)-1H-1,2,4-triazol-5-yl]ethyl}acetamide], the IC50 amounted to 1.5 nM at human V1a receptor and 45.5 nM on human V2 receptor. Also, the “ratio IC50 hV2/hV1a” value on human V1a receptor is recorded as 30.3.

On to `CC(=O)NC(CO)c1nc(Cn2nc(-c3ccc(Cl)cc3)n(C[C@H](O)C(F)(F)F)c2=O)nn1-c1ccccc1Cl` (mixture of isomers) [Example 91, N-{1-[1-(2-Chlorophenyl)-3-({3-(4-chlorophenyl)-5-oxo-4-[(2S)-3,3,3-trifluoro-2-hydroxypropyl]-4,5-dihydro-1H-1,2,4-triazol-1-yl}methyl)-1H-1,2,4-triazol-5-yl]-2-hydroxyethyl}acetamide], for which, on human V1a receptor, the half-maximal inhibitory concentration (IC50) amounted to 0.71 nM and the “ratio IC50 hV2/hV1a” value is on record as 12.5. The IC50 on human V2 receptor amounted to 8.9 nM.

What is called IC50 is the concentration that gives 50% inhibition.
